Laboratory results taken from article PMC9115314 (Biochemistry and Biophysics Reports, 2022).

What follows are molecules tested against h2E2 humanized anti-cocaine mAb (assay: differential scanning fluorimetry). Conditions: read-out: Avg Kd (nM) ± Std. Dev. (fold increase vs unmodified h2E2 mAb).
Format: binding, Homo sapiens

| SMILES | Kd [nM] |
| --- | --- |
| COC(=O)[C@H]1[C@@H](OC(=O)c2ccccc2)C[C@@H]2CC[C@H]1N2C [Coc, cocaine] | 53 ± 6.8 |
| CCOC(=O)[C@H]1[C@@H](OC(=O)c2ccccc2)C[C@@H]2CC[C@H]1N2C [CE, cocaethylene] | 20.7 ± 4.1 |
| CN1[C@H]2CC[C@@H]1[C@@H](C(=O)O)[C@@H](OC(=O)c1ccccc1)C2 [BE, benzoylecgonine] | 177 ± 14 |
